Measured values from patent US20120288456A1, “NOVEL COMPOUND” (priority 2009, published 2012).

What was measured:
[1] = Comparative solubility of BMDBM in 1:1 mixture of C12-15 alkyl benzoate and a polymeric or solid UV-filter
Source text: Where necessary the mixture was centrifuged in order to obtain a clear supernatant.

[2] = Solubility of BMDBM and BEMT in cosmetic solvent with and without PG-UVB (saturation, HPLC of supernatant; storage test); settings: 200 mg BEMT in 800 mg diethylhexyl adipate/PG-UVB1 1:1, 1 month at RT

Question: What does the source list for CCCCC(CC)COc1ccc(-c2nc(-c3ccc(OC)cc3)nc(-c3ccc(OCC(CC)CCCC)cc3O)n2)c(O)c1 (stereo not shown) [BEMT, bis-ethylhexyloxyphenol methoxyphenyl triazine]?
Answer: Δ solubility of BMDBM related to cosmetic solvent ([1]; C12-15 alkyl benzoate/UV-filter 1:1, label = UV-filter): −4 wt.-%; Δ solubility of BMDBM ([1]; C12-15 alkyl benzoate/UV-filter 1:1 versus C12-15 alkyl benzoate, label = UV-filter): −11 wt.-%; Solubility of BMDBM in C12-15 alkyl benzoate/UV-filter 1:1 ([1]; label = UV-filter in 1:1 mixture, 200 mg BMDBM in 1000 mg mixture, 1 month at RT, HPLC of supernatant): 3 wt.-%; re-crystallization on storage [2]: no re-crystallization occurred
